Laboratory results as given in US11141452B2, “Bifunctional compounds for relief of pain comprising an opioid receptor agonist moiety and a NK1 receptor antagonist moiety and methods for treating pain” (THE ARIZONA BOARD OF REGENTS ON BEHALF OF THE UNIVERSITY OF …, priority 2014, dated 2021).
Values joined by “and” are separate entries in the source; they are usually repeats but may differ in a detail not shown here. Identical values can stand only once. Like-named read-outs stand apart in the source and are kept apart here. Non-standard residues stand in square brackets, D forms with d. Residues, ends and D or L forms follow the SMILES beside them. *: point of attachment. NH(3,5-(CF3)2-benzyl) = FC(F)(F)c1cc(CN*)cc(C(F)(F)F)c1; NMeBn(3,5-(CF3)2) = CN(Cc1cc(C(F)(F)F)cc(C(F)(F)F)c1)*

How the values were obtained:
NK1R = biological target: T1, NK1R (Cavia porcellus, UniProt P30547); assay: GPI/LMMP functional assay at NK1R (agonist and antagonist testing); format: cell-based, guinea pig; conditions: for GPI/LMMP (NK1R) Agonist: agonist activity at the concentration in the cell
T1 construct: The longitudinal muscle with myenteric plexus (LMMP) was carefully separated from the circular muscle; from tissue; host or cells: guinea pig ileum longitudinal muscle with myenteric plexus

MOR [1] = assay: Radioligand binding assay at μ opioid receptor; conditions: for Log[IC50±] (μ): log IC50 ± error; for Ki^μ/Ki^δ: ratio of binding affinities MOR/DOR
Procedure: (§1) Binding affinities of these ligands were measured on radioligand binding assays. […] ([43]).

MOR [2] = assay: Guinea pig isolated ileum (GPI) functional assay; format: cell-based; conditions: for IC50: agonist activity, electrically stimulated tissue, read-out: GPI (MOR) IC50
DOR [3] = biological target: DOR (Homo sapiens, UniProt P41143); assay: Radioligand binding assay at δ opioid receptor; conditions: for Ki: Ki^δ (nM)
Procedure: as §1

DOR [4] = biological target: T2, DOR (Mus musculus, UniProt P32300); assay: Mouse isolated vas deferens (MVD) functional assay; format: cell-based
T2 construct: Male ICR mice under CO2 anesthesia were sacrificed by cervical dislocation and the vasa differentia removed; from tissue; host or cells: mouse vas deferens (ICR mice)

hNK1 = biological target: T3, hNK1 (Homo sapiens, UniProt P25103); assay: hNK1/CHO cell membrane radioligand binding assay ([3H]SP); conditions: for Ki^hNK1/Ki^rNK1: ratio human/rat NK1
T3 construct: expressed in transfected cells; host or cells: CHO

[5] = GPI/LMMP (NK1R) Ke (nM) ± S.E.M., antagonist activity
[6] = MVD (DOR) IC50 (nM), agonist activity, electrically stimulated tissue
[7] = antagonist activity, read-out: GPI/LMMP (NK1R) Ke (nM) ± S.E.M.

T1 sequence (P30547 whole entry): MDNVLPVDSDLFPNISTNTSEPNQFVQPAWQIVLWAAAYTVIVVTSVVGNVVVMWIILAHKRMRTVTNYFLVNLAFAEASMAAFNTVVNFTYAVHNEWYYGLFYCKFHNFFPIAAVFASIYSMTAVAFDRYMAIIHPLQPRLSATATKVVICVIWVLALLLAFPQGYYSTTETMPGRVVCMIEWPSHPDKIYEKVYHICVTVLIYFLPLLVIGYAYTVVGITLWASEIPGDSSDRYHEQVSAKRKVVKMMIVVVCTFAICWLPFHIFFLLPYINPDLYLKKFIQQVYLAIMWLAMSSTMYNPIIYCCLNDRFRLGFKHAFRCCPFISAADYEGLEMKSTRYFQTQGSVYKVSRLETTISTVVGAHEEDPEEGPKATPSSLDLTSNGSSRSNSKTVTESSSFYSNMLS
T3 sequence (P25103 whole entry): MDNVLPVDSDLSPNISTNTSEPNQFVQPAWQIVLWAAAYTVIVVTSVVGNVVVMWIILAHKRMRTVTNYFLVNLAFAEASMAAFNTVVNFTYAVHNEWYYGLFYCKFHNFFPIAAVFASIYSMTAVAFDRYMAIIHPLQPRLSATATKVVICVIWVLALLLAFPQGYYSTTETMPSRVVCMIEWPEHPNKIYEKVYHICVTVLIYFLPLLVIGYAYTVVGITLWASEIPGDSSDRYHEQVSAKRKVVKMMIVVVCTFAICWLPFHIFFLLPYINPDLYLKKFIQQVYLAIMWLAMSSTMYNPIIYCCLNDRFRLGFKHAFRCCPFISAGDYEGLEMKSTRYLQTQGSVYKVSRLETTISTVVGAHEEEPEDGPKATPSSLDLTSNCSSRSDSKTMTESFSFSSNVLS
DOR (Homo sapiens, UniProt P41143), sequence (P41143 whole entry): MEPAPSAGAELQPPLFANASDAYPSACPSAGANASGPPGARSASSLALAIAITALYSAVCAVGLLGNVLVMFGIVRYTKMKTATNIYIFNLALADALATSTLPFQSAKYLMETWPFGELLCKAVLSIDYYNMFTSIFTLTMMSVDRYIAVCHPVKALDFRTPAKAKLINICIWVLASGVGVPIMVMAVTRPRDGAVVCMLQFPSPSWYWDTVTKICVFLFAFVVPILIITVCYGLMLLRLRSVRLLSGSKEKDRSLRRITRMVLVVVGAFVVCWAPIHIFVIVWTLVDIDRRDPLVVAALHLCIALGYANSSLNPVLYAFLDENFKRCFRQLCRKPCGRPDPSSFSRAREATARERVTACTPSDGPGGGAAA
T2 sequence (P32300 whole entry): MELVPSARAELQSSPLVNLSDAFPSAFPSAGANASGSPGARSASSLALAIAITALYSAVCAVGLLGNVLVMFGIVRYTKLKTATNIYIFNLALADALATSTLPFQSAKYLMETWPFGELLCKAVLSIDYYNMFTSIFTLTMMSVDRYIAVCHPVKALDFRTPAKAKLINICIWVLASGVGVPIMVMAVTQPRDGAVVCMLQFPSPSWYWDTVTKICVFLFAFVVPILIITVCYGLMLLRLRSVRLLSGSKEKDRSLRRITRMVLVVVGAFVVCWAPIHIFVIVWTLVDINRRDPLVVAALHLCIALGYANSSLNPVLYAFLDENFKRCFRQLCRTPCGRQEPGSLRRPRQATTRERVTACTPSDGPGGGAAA

| SMILES | Kb (NK1R; [5]) [nM] | Ki (MOR [1]) [nM] | Log[IC50±] (μ) (MOR [1]) | IC50 (MOR [2]) | IC50 (DOR [3]) [nM] | IC50 (DOR [4]; [6]) [nM] | Kb (NK1R; [7]) | higher agonist activity at DOR compared to MOR (functional assays) (DOR [4]) [times] | Ki (hNK1; Ki^hNK1 (nM), hNK1/CHO membranes, [3H]SP) [nM] | Ki^hNK1/Ki^rNK1 (hNK1) | GPI/LMMP (NK1R) Agonist (NK1R) | Ki^μ/Ki^δ (MOR [1]) | GPI/MVD IC50 ratio (MOR [2]) | Ki (DOR [3]) [nM] | Kb (NK1R) [nM] | IC50 (DOR [4]) [nM] | GPI (MOR) % at 1 uM (MOR [2]; at 1 uM) [% at 1 uM] |
| --- | --- | --- | --- | --- | --- | --- | --- | --- | --- | --- | --- | --- | --- | --- | --- | --- | --- |
| CCCC[C@H](NC(=O)[C@H](Cc1ccccc1)N(C)C(=O)CNC(=O)[C@@H](C)NC(=O)[C@@H](N)Cc1ccc(O)cc1)C(=O)N1CCC[C@H]1C(=O)N[C@@H](CC(C)C)C(=O)N[C@@H](Cc1c[nH]c2ccccc12)C(=O)NCc1cc(C(F)(F)F)cc(C(F)(F)F)c1 [AKG112, H-Tyr-D-Ala-Gly-NMePhe-Nle-Pro-Leu-Trp-NH-Bn(3′,5′-(CF3)2)] | 5.4 ± 2.1 | 13 | −7.51 ± 0.04 | 718 nM | 50.1 | 11.6 ± 2.55 |  |  |  |  |  |  |  |  |  |  |  |
| CC(C)C[C@H](NC(=O)[C@@H]1CCCN1C(=O)[C@H](Cc1ccc(O)cc1)NC(=O)CNC(=O)[C@H](Cc1ccccc1)NC(=O)[C@@H](C)NC(=O)[C@@H](N)Cc1ccc(O)cc1)C(=O)N[C@@H](Cc1c[nH]c2ccccc12)C(=O)NCc1cc(C(F)(F)F)cc(C(F)(F)F)c1 [AKG114] (H-Y[dA]FGYPLW-{NH(3,5-(CF3)2-benzyl)}) |  | 4 | −8.02 ± 0.04 | 110 nM and 112 nM |  |  | 15 nM | 4 |  |  |  |  |  |  |  |  |  |
| Cc1cc(O)cc(C)c1C[C@H](N)C(=O)N[C@H](C)C(=O)NCC(=O)N[C@@H](Cc1ccccc1)C(=O)N1CCC[C@H]1C(=O)N[C@@H](CC(C)C)C(=O)N[C@@H](Cc1c[nH]c2ccccc12)C(=O)NCc1cc(C(F)(F)F)cc(C(F)(F)F)c1 [AKG116, H-Dmt-D-Ala-Gly-Phe-Pro-Leu-Trp-NH-Bn(3′,5′-(CF3)2)] |  | 3 | −8.63 ± 0.04 | 80.8 nM | 2.19 | 3.1 | 25 nM and 24.9 nM | 26 | 1.4 | 1/19 | None at 100 nM | 3/1 | 26/1 | 1 |  |  |  |
| CC(C)C[C@H](NC(=O)[C@@H]1CCCN1C(=O)[C@H](Cc1ccccc1)N(C)C(=O)CNC(=O)[C@@H](C)NC(=O)[C@@H](N)Cc1ccc(O)cc1)C(=O)N[C@@H](Cc1c[nH]c2ccccc12)C(=O)NCc1cc(C(F)(F)F)cc(C(F)(F)F)c1 [AKG117, H-Tyr-D-Ala-Gly-NMePhe-Pro-Leu-Trp-NH-Bn(3′,5′-(CF3)2)] |  |  | −7.05 ± 0.04 | 230 nM and 232 nM |  | 100 |  |  |  |  |  |  |  |  |  |  |  |
| CC(C)C[C@H](NC(=O)[C@@H]1CCCN1C(=O)CCNC(=O)[C@H](Cc1ccccc1)N(C)C(=O)CNC(=O)[C@@H](C)NC(=O)[C@@H](N)Cc1ccc(O)cc1)C(=O)N[C@@H](Cc1c[nH]c2ccccc12)C(=O)NCc1cc(C(F)(F)F)cc(C(F)(F)F)c1 [AKG119, H-Tyr-D-Ala-Gly-NMePhe-β-Ala-Pro-Leu-Trp-NH-Bn(3′,5′-(CF3)2)] |  | 8 | −7.76 ± 0.11 | 365 ± 186 nM |  |  |  |  |  | 1/32 | None at 100 nM |  | 10/1 |  |  |  |  |
| CC(C)C[C@H](NC(=O)[C@@H]1CCCN1C(=O)CCCNC(=O)[C@H](Cc1ccccc1)N(C)C(=O)CNC(=O)[C@@H](C)NC(=O)[C@@H](N)Cc1ccc(O)cc1)C(=O)N[C@@H](Cc1c[nH]c2ccccc12)C(=O)NCc1cc(C(F)(F)F)cc(C(F)(F)F)c1 [AKG123, H-Tyr-D-Ala-Gly-NMePhe-γ-Abu-Pro-Leu-Trp-NH-Bn(3′,5′-(CF3)2)] |  | 9 | −7.73 ± 0.07 | 424 ± 148 nM | 5.89 |  |  |  |  |  |  |  |  | 3 | 2.3 ± 0.7 | 50.1 ± 17.4 |  |
| CC(C)C[C@H](NC(=O)[C@@H]1CCCN1C(=O)CCCCCNC(=O)[C@H](Cc1ccccc1)N(C)C(=O)CNC(=O)[C@@H](C)NC(=O)[C@@H](N)Cc1ccc(O)cc1)C(=O)N[C@@H](Cc1c[nH]c2ccccc12)C(=O)NCc1cc(C(F)(F)F)cc(C(F)(F)F)c1 [AKG124, H-Tyr-D-Ala-Gly-NMePhe-[4]6-Ahx-Pro-Leu-Trp-NH-Bn(3′,5′-(CF3)2)] |  | 7 | −7.80 ± 0.09 | 255 ± 71.2 nM | 72.4 |  |  |  |  | 1/36 | None at 100 nM |  | 7/1 |  | 11.2 ± 3.1 | 36.8 ± 13.6 |  |
| Cc1cc(O)cc(C)c1C[C@H](N)C(=O)N[C@H](C)C(=O)NCC(=O)N(C)[C@@H](Cc1ccc(F)cc1)C(=O)N1CCC[C@H]1C(=O)N[C@@H](CC(C)C)C(=O)N[C@@H](Cc1c[nH]c2ccccc12)C(=O)NCc1cc(C(F)(F)F)cc(C(F)(F)F)c1 [AKG128, H-Dmt-D-Ala-Gly-NMePhe(4-F)-Pro-Leu-Trp-NH-Bn(3′,5′-(CF3)2)] | 11.2 ± 2.7 | 1 | −8.55 ± 0.18 | 76.5 nM |  | 11.5 ± 5.6 |  | ~7 |  | 1/13 | None at 30 nM | 1/4 |  |  |  |  |  |
| CC(C)C[C@H](NC(=O)[C@@H]1CCCN1C(=O)Cc1ccc(CNC(=O)[C@H](Cc2ccccc2)N(C)C(=O)CNC(=O)[C@@H](C)NC(=O)[C@@H](N)Cc2ccc(O)cc2)cc1)C(=O)N[C@@H](Cc1c[nH]c2ccccc12)C(=O)NCc1cc(C(F)(F)F)cc(C(F)(F)F)c1 [AKG178, H-Tyr-D-Ala-Gly-NMePhe-4-Ampa-Pro-Leu-Trp-NH-Bn(3′,5′-(CF3)2)] |  |  |  | 650 nM and 654 nM |  |  | 76 nM | 15 |  | 1/21 | None at 300 nM |  | 15/1 |  |  |  |  |
| Cc1cc(O)cc(C)c1C[C@H](N)C(=O)N[C@H](C)C(=O)NCC(=O)N[C@@H](Cc1ccc(Cl)cc1)C(=O)N1CCC[C@H]1C(=O)N[C@@H](CC(C)C)C(=O)N[C@@H](Cc1c[nH]c2ccccc12)C(=O)NCc1cc(C(F)(F)F)cc(C(F)(F)F)c1 [AKG191, H-Dmt-D-Ala-Gly-Phe(4-Cl)-Pro-Leu-Trp-NH-Bn(3′,5′-(CF3)2)] |  | 2 | −8.33 ± 0.09 | 166 ± 71.6 nM |  | 25.4 ± 7.7 |  |  |  | 1/9 | None at 300 nM |  |  |  |  |  |  |
| Cc1cc(O)cc(C)c1C[C@H](N)C(=O)N[C@H](C)C(=O)NCC(=O)N[C@@H](Cc1ccc(Br)cc1)C(=O)N1CCC[C@H]1C(=O)N[C@@H](CC(C)C)C(=O)N[C@@H](Cc1c[nH]c2ccccc12)C(=O)NCc1cc(C(F)(F)F)cc(C(F)(F)F)c1 [AKG192, H-Dmt-D-Ala-Gly-Phe(4-Br)-Pro-Leu-Trp-NH-Bn(3′,5′-(CF3)2)] | 23.4 ± 8.9 | 5 | −7.96 ± 0.12 | 463 ± 114 nM |  |  |  |  |  |  |  |  |  |  |  |  |  |
| Cc1cc(O)cc(C)c1C[C@H](N)C(=O)N[C@H](C)C(=O)NCC(=O)N[C@@H](Cc1ccc(I)cc1)C(=O)N1CCC[C@H]1C(=O)N[C@@H](CC(C)C)C(=O)N[C@@H](Cc1c[nH]c2ccccc12)C(=O)NCc1cc(C(F)(F)F)cc(C(F)(F)F)c1 [AKG193, H-Dmt-D-Ala-Gly-Phe(4-I)-Pro-Leu-Trp-NH-Bn(3′,5′-(CF3)2)] |  | 6 | −7.88 ± 0.07 |  |  |  |  |  |  |  |  |  |  |  |  |  | 41 |
| CC(C)C[C@H](NC(=O)[C@@H]1CCCN1C(=O)[C@H](Cc1ccc(O)cc1)NC(=O)CNC(=O)[C@H](Cc1ccccc1)NC(=O)[C@@H](C)NC(=O)[C@@H](N)Cc1ccc(O)cc1)C(=O)N[C@@H](Cc1c[nH]c2ccccc12)C(=O)N(C)Cc1cc(C(F)(F)F)cc(C(F)(F)F)c1 [QXP04] (H-Y[dA]FGYPLW-{NMeBn(3,5-(CF3)2)}) |  | 10 | −7.66 ± 0.05 | 389 ± 180 nM |  |  |  |  |  |  | None at 1 uM | 1/7 | 23/1 |  |  |  |  |
